Among the data in BindingDB's records for doi:10.1021/jm00364a029 (1983) are Ki values, retold here.

The target in assay [1] is cGMP-dependent 3',5'-cyclic phosphodiesterase (Homo sapiens, UniProt O00408). The experiment in a line: ChEBML_217498. On the procedure: Inhibition of human lung low-affinity cGMP phosphodiesterases (10-50 uM/L)
The target of assay [2] is cGMP-specific 3',5'-cyclic phosphodiesterase (Homo sapiens, UniProt O76074). The assay is described as follows: ChEBML_217497. On the procedure:
Inhibition of human lung high-affinity cGMP phosphodiesterases (0.5-2 uM/L)

Each structure is given as a SMILES string.

Sequence of cGMP-dependent 3',5'-cyclic phosphodiesterase (O00408 whole entry): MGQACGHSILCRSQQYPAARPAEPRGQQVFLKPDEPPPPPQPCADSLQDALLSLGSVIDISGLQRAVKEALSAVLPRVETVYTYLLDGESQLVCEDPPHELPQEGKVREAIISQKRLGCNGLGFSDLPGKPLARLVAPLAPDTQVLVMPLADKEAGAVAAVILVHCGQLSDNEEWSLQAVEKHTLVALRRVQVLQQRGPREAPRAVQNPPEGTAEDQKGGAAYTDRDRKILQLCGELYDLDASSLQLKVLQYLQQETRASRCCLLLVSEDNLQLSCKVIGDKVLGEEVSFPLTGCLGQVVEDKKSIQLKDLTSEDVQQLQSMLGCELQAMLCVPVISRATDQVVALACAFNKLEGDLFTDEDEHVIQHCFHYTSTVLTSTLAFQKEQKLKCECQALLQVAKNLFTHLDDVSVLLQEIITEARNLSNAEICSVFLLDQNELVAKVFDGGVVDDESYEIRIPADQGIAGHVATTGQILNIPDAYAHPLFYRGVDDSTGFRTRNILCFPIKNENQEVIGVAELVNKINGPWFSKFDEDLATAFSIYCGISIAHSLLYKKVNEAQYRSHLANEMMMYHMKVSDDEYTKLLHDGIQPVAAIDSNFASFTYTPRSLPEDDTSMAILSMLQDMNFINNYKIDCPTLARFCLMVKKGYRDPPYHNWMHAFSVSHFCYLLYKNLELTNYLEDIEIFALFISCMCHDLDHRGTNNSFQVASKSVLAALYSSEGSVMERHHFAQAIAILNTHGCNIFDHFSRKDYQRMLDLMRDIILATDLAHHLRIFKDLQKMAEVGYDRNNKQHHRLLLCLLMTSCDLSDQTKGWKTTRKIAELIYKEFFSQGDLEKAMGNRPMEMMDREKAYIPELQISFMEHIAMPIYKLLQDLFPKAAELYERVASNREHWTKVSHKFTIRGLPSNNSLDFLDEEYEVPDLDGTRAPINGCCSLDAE

As to `C[C@H](O)Cn1cnc2c1c(=O)n(C)c(=O)n2C` [(S)-7-(2-hydroxypropyl)-1,3-dimethyl-1H-purine-2,6(3H,7H)-dione], the Ki in assay [1] came out at 700 µM; in assay [2] it was 600 µM.
As for `CC(O)Cn1cnc2c1c(=O)n(C)c(=O)n2C` (stereo unspecified) [7-(2-Hydroxy-propyl)-1,3-dimethyl-3,7-dihydro-purine-2,6-dione(Proxyphylline)], the Ki in assay [1] and in assay [2] was 600 µM in each case.
As to `C[C@@H](O)Cn1cnc2c1c(=O)n(C)c(=O)n2C` [(R)-7-(2-hydroxypropyl)-1,3-dimethyl-1H-purine-2,6(3H,7H)-dione], the Ki in assay [1] and in assay [2] was 600 µM in each case.

Usually Ki stands for a dissociation constant, usually derived from enzyme kinetics or from competition with a known ligand. Lower therefore signals tighter binding.
